pKi: −log10 of the molar value.
Target: T1, AGAP002992-PA (Anopheles gambiae, UniProt Q5TU56)
T1 sequence (Q5TU56 whole entry): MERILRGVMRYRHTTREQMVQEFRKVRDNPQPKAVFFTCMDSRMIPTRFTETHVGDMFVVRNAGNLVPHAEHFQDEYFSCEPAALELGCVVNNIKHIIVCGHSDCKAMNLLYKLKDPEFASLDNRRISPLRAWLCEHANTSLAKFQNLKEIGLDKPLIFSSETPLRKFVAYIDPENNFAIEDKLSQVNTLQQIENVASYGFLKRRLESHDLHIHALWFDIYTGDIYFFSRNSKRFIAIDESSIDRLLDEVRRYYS
Description: Inhibition of Anopheles gambiae carbonic anhydrase pre-incubated for 15 mins by stopped-flow CO2 hydration assay

Compound	pKi
NS(=O)(=O)c1ccc(O)cc1	< 4.00
NS(=O)(=O)c1cccc(S(N)(=O)=O)c1	6.07
Nc1ccc(S(=O)(=O)NCc2ccc(S(N)(=O)=O)cc2)cc1	7.09
Nc1ccc(S(=O)(=O)Nc2nnc(S(N)(=O)=O)s2)cc1	8.17
Nc1ccc(S(=O)(=O)Nc2ccc(S(N)(=O)=O)cc2)cc1	7.08
NS(=O)(=O)c1ccc(CCO)cc1	< 4.00
Nc1ccc(S(N)(=O)=O)cc1F	6.04
NS(=O)(=O)c1ccc(CO)cc1	< 4.00
NCCc1ccc(S(N)(=O)=O)cc1	6.08
Nc1ccc(S(=O)(=O)NCCc2ccc(S(N)(=O)=O)cc2)cc1	7.33
NS(=O)(=O)c1ccc(S(=O)(=O)Nc2cccc3c(Cl)c[nH]c23)cc1	6.65
Nc1cc(C(F)(F)F)c(S(N)(=O)=O)cc1S(N)(=O)=O [2,4-DISULFAMYLTRIFLUOROMETHYLANILINE]	5.36
CCN[C@H]1CN(CCCOC)S(=O)(=O)c2sc(S(N)(=O)=O)cc21 [BRINZOLAMIDE]	7.50
CCOc1ccc2nc(S(N)(=O)=O)sc2c1 [ETHOXZOLAMIDE]	6.73
NCc1ccc(S(N)(=O)=O)cc1 [MAFENIDE]	4.87
Cc1ccc(S(N)(=O)=O)cc1 [P-TOLUENESULFONAMIDE]	4.91
O=C1NS(=O)(=O)c2ccccc21 [SACCHARIN]	7.02
Nc1ccc(S(N)(=O)=O)cc1 [SULFANILAMIDE]	6.06

More lines, now with the values ahead:

pKi	Compound
8.21	NS(=O)(=O)c1ccc(CCNS(=O)(=O)c2ccc([N+](=O)[O-])cc2CO)cc1
5.19	NS(=O)(=O)c1cc(Cl)cc(Cl)c1O
6.13	Nc1nnc(S(N)(=O)=O)s1
6.12	Nc1cc(Cl)c(S(N)(=O)=O)cc1S(N)(=O)=O
4.97	Nc1nccc(Nc2ccc(S(N)(=O)=O)cc2)n1
6.07	Nc1ccc(S(N)(=O)=O)cc1Br
5.77	Cn1nc(S(N)(=O)=O)sc1=N
6.05	Nc1cccc(S(N)(=O)=O)c1
4.91	Nc1ccc(S(N)(=O)=O)cc1Cl
8.01	NS(=O)(=O)c1nnc(NS(=O)(=O)c2ccccc2)s1 [BENZOLAMIDE]
6.76	Cc1ccc(-c2cc(C(F)(F)F)nn2-c2ccc(S(N)(=O)=O)cc2)cc1 [CELECOXIB]
< 4.00	CC1(C)O[C@@H]2[C@@H](CO[C@@]3(COS(N)(=O)=O)OC(C)(C)O[C@@H]23)O1 [TOPIRAMATE]
